Assay results from article PMC5218480 (PLoS ONE, 2017).

Tested on: MV-4-11 cells
Experiment: Gene expression microarray analysis (Affymetrix PrimeView) and GSEA
Format: cell-based, human
Parameters: RFU PODN (11730768_x_at) / Fold change /veh PODN (11730768_x_at) / RFU LINC00158 (11744669_a_at) / Fold change /veh LINC00158 (11744669_a_at) / RFU DUSP10 (11751237_a_at) / Fold change /veh DUSP10 (11751237_a_at) / RFU ID3 (11757404_x_at) / Fold change /veh ID3 (11757404_x_at) / RFU PLEKHG5 (11737974_s_at) / Fold change /veh PLEKHG5 (11737974_s_at) / RFU LRRC4B (11730491_at) / Fold change /veh LRRC4B (11730491_at) / RFU GIMAP4 (11747438_a_at) / Fold change /veh GIMAP4 (11747438_a_at) / RFU KRT8 (11758183_x_at) / Fold change /veh KRT8 (11758183_x_at) / RFU CNN1 (11734310_a_at) / Fold change /veh CNN1 (11734310_a_at) / RFU VPS37D (11726825_at) / Fold change /veh VPS37D (11726825_at) / RFU C10orf10 (11716522_x_at) / Fold change /veh C10orf10 (11716522_x_at) / RFU KIR2DL2 /// KIR2DL4 /// KIR2DL5A /// KIR2DL5B /// KIR2DS1 /// KIR2DS2 /// KIR2DS3 /// KIR2DS4 /// KIR3DL3 /// KIR3DL3 /// KIR3DS1 (11738374_at) / Fold change /veh KIR2DL2 /// KIR2DL4 /// KIR2DL5A /// KIR2DL5B /// KIR2DS1 /// KIR2DS2 /// KIR2DS3 /// KIR2DS4 /// KIR3DL3 /// KIR3DL3 /// KIR3DS1 (11738374_at) / RFU C1QL1 (11718748_at) / Fold change /veh C1QL1 (11718748_at) / RFU TMPRSS4 (11747572_a_at) / Fold change /veh TMPRSS4 (11747572_a_at) / RFU HAMP (11756126_x_at) / Fold change /veh HAMP (11756126_x_at) / RFU RNFT2 (11725882_a_at) / Fold change /veh RNFT2 (11725882_a_at) / RFU NR4A2 (11747474_a_at) / Fold change /veh NR4A2 (11747474_a_at) / RFU ABCC12 (11746883_a_at) / Fold change /veh ABCC12 (11746883_a_at) / RFU TMEM136 (11760407_x_at) / Fold change /veh TMEM136 (11760407_x_at) / RFU CLDN22 /// WWC2 (11732394_at) / Fold change /veh CLDN22 /// WWC2 (11732394_at) / RFU HLA-DPB1 (11760878_x_at) / Fold change /veh HLA-DPB1 (11760878_x_at) / RFU SPINT1 (11716480_a_at) / Fold change /veh SPINT1 (11716480_a_at) / RFU GAP43 (11754022_s_at) / Fold change /veh GAP43 (11754022_s_at) / RFU A4GNT (11735810_at) / Fold change /veh A4GNT (11735810_at) / RFU PRB3 (11715151_x_at) / Fold change /veh PRB3 (11715151_x_at) / RFU TUBB4B (11761932_at) / Fold change /veh TUBB4B (11761932_at) / RFU CAPN14 (11732068_a_at) / Fold change /veh CAPN14 (11732068_a_at) / RFU TMCC2 (11721928_a_at) / Fold change /veh TMCC2 (11721928_a_at) / RFU IRGQ (11745062_a_at) / Fold change /veh IRGQ (11745062_a_at) / RFU FAM174B (11720279_a_at) / Fold change /veh FAM174B (11720279_a_at) / RFU TMPRSS4 (11748680_a_at) / Fold change /veh TMPRSS4 (11748680_a_at) / RFU FAM212B (11763350_a_at) / Fold change /veh FAM212B (11763350_a_at) / RFU PLEKHG5 (11743358_a_at) / Fold change /veh PLEKHG5 (11743358_a_at) / RFU ZSCAN30 (11745921_a_at) / Fold change /veh ZSCAN30 (11745921_a_at) / RFU CMKLR1 (11741424_a_at) / Fold change /veh CMKLR1 (11741424_a_at) / RFU LOC101060620 /// MAPK8IP1 (11723275_at) / Fold change /veh LOC101060620 /// MAPK8IP1 (11723275_at) / RFU SPTSSB (11747773_x_at) / Fold change /veh SPTSSB (11747773_x_at) / RFU PRSS12 (11739890_at) / Fold change /veh PRSS12 (11739890_at) / RFU BIN1 (11741810_x_at) / Fold change /veh BIN1 (11741810_x_at) / RFU WNT11 (11732464_a_at) / Fold change /veh WNT11 (11732464_a_at) / RFU C10orf10 (11716521_a_at) / Fold change /veh C10orf10 (11716521_a_at) / RFU C5orf56 (11738089_at) / Fold change /veh C5orf56 (11738089_at) / RFU CYB561 (11721691_x_at) / Fold change /veh CYB561 (11721691_x_at) / RFU ANKRD19P (11752326_a_at) / Fold change /veh ANKRD19P (11752326_a_at) / RFU OR2T12 /// OR2T33 /// OR2T8 (11738714_s_at) / Fold change /veh OR2T12 /// OR2T33 /// OR2T8 (11738714_s_at) / RFU VCAN (11748164_a_at) / Fold change /veh VCAN (11748164_a_at) / RFU JSRP1 (11732532_at) / Fold change /veh JSRP1 (11732532_at) / RFU KRTAP10-11 (11738290_x_at) / Fold change /veh KRTAP10-11 (11738290_x_at) / RFU MYO3A (11730013_a_at) / Fold change /veh MYO3A (11730013_a_at) / RFU EBF3 (11725865_a_at) / Fold change /veh EBF3 (11725865_a_at) / RFU CAMK2N1 (11719241_x_at) / Fold change /veh CAMK2N1 (11719241_x_at) / RFU C5orf56 (11738088_a_at) / Fold change /veh C5orf56 (11738088_a_at) / RFU OLFML3 (11715873_a_at) / Fold change /veh OLFML3 (11715873_a_at) / RFU LOC100653217 /// NTM (11731650_a_at) / Fold change /veh LOC100653217 /// NTM (11731650_a_at) / RFU MAPK11 (11762145_a_at) / Fold change /veh MAPK11 (11762145_a_at) / RFU FIZ1 (11724087_x_at) / Fold change /veh FIZ1 (11724087_x_at) / RFU OASL (11726364_x_at) / Fold change /veh OASL (11726364_x_at) / RFU SOX15 (11748057_x_at) / Fold change /veh SOX15 (11748057_x_at) / RFU CD79A (11719716_a_at) / Fold change /veh CD79A (11719716_a_at) / RFU HIST1H1D (11736915_at) / Fold change /veh HIST1H1D (11736915_at) / RFU CASKIN2 (11723855_a_at) / Fold change /veh CASKIN2 (11723855_a_at) / RFU LOC730098 (11760151_x_at) / Fold change /veh LOC730098 (11760151_x_at) / RFU OR4N2 (11742367_at) / Fold change /veh OR4N2 (11742367_at) / RFU PRRT2 (11749266_a_at) / Fold change /veh PRRT2 (11749266_a_at) / RFU SNX32 (11753110_a_at) / Fold change /veh SNX32 (11753110_a_at) / RFU CDHR5 (11726645_a_at) / Fold change /veh CDHR5 (11726645_a_at) / RFU RCAN1 (11760418_a_at) / Fold change /veh RCAN1 (11760418_a_at) / RFU FAM167A (11723789_a_at) / Fold change /veh FAM167A (11723789_a_at) / RFU FAM26E (11764081_at) / Fold change /veh FAM26E (11764081_at) / RFU ISYNA1 (11749810_s_at) / Fold change /veh ISYNA1 (11749810_s_at) / RFU ACY1 (11761880_at) / Fold change /veh ACY1 (11761880_at) / RFU 11764098_at / Fold change /veh 11764098_at / RFU SAMD14 (11745864_x_at) / Fold change /veh SAMD14 (11745864_x_at) / RFU NPB (11741838_a_at) / Fold change /veh NPB (11741838_a_at) / RFU TMPRSS6 (11731388_a_at) / Fold change /veh TMPRSS6 (11731388_a_at) / RFU KRTAP10-2 (11738614_at) / Fold change /veh KRTAP10-2 (11738614_at) / RFU ARHGAP8 /// PRR5-ARHGAP8 (11727945_x_at) / Fold change /veh ARHGAP8 /// PRR5-ARHGAP8 (11727945_x_at) / RFU KRTAP5-7 /// NADSYN1 (11734609_at) / Fold change /veh KRTAP5-7 /// NADSYN1 (11734609_at) / RFU RASL12 (11751679_a_at) / Fold change /veh RASL12 (11751679_a_at) / RFU CDKN2B (11736163_a_at) / Fold change /veh CDKN2B (11736163_a_at) / RFU PRF1 (11729649_at) / Fold change /veh PRF1 (11729649_at) / RFU, ZNF638 /// ZNF638-IT1 / Fold change vs veh, ZNF638 /// ZNF638-IT1 / RFU, PANK3 / Fold change vs veh, PANK3 / RFU, SH3YL1 / Fold change vs veh, SH3YL1 / RFU, ZEB2 / Fold change vs veh, ZEB2 / RFU, NRIP1 / Fold change vs veh, NRIP1 / RFU, PTTG1IP / Fold change vs veh, PTTG1IP / RFU, CAPN2 / Fold change vs veh, CAPN2 / RFU, MED14 / Fold change vs veh, MED14 / RFU, SNORA58 / Fold change vs veh, SNORA58 / RFU, C1orf63 / Fold change vs veh, C1orf63 / RFU, LRRFIP1 / Fold change vs veh, LRRFIP1 / RFU, NDUFAF7 / Fold change vs veh, NDUFAF7 / RFU, SLC12A2 / Fold change vs veh, SLC12A2 / RFU, IBTK / Fold change vs veh, IBTK / RFU, ESF1 / Fold change vs veh, ESF1 / Fold change vs veh, TMEM50B / RFU, TAOK1 / Fold change vs veh, TAOK1 / RFU, ACBD3 / Fold change vs veh, ACBD3 / RFU, TMA16 / Fold change vs veh, TMA16 / RFU, RWDD3 / Fold change vs veh, RWDD3 / RFU, BCAT1 / Fold change vs veh, BCAT1 / RFU, EDEM3 / Fold change vs veh, EDEM3 / RFU, TMEM33 / Fold change vs veh, TMEM33 / RFU, WDR75 / Fold change vs veh, WDR75 / RFU, AHCTF1 / Fold change vs veh, AHCTF1 / RFU, TFRC / Fold change vs veh, TFRC / RFU, ZDHHC17 / Fold change vs veh, ZDHHC17 / RFU, NOM1 / Fold change vs veh, NOM1 / RFU, ARL8B / Fold change vs veh, ARL8B / RFU, ZBTB11 / Fold change vs veh, ZBTB11 / RFU, TAMM41 / Fold change vs veh, TAMM41 / RFU, KIAA1704 /// LOC100996395 / Fold change vs veh, KIAA1704 /// LOC100996395 / RFU, ING1 / Fold change vs veh, ING1 / RFU, TRMT61B / Fold change vs veh, TRMT61B / RFU, FUBP3 / Fold change vs veh, FUBP3 / RFU, TP53 / Fold change vs veh, TP53 / RFU, TNKS2 / Fold change vs veh, TNKS2 / RFU, ZFP14 / Fold change vs veh, ZFP14 / RFU, ACTR2 / Fold change vs veh, ACTR2 / RFU, PPP3R1 / Fold change vs veh, PPP3R1 / RFU, PIK3R1 / Fold change vs veh, PIK3R1 / RFU, HNRNPA1 / Fold change vs veh, HNRNPA1 / RFU, RNF170 / Fold change vs veh, RNF170 / RFU, ZNF28 / Fold change vs veh, ZNF28 / RFU, RNGTT / Fold change vs veh, RNGTT / RFU, OGT / Fold change vs veh, OGT / RFU, BRD1 / Fold change vs veh, BRD1 / RFU, MARS / Fold change vs veh, MARS / RFU, ZNF655 / Fold change vs veh, ZNF655 / RFU, FAHD1 / Fold change vs veh, FAHD1 / RFU, BDP1 / Fold change vs veh, BDP1 / RFU, LRRCC1 / Fold change vs veh, LRRCC1 / RFU, ARID1A / Fold change vs veh, ARID1A / RFU, ZNF146 / Fold change vs veh, ZNF146 / RFU, ZNF330 / Fold change vs veh, ZNF330 / RFU, GPN3 / Fold change vs veh, GPN3 / RFU, C9orf123 / Fold change vs veh, C9orf123 / RFU, N4BP2L2 / Fold change vs veh, N4BP2L2 / RFU, ARFIP1 / Fold change vs veh, ARFIP1 / RFU, FAM179B / Fold change vs veh, FAM179B / RFU, BCL10 / Fold change vs veh, BCL10 / RFU, UHRF1BP1L / Fold change vs veh, UHRF1BP1L / RFU, BET1 / Fold change vs veh, BET1 / RFU, CNOT2 / Fold change vs veh, CNOT2 / RFU, ZNF268 / Fold change vs veh, ZNF268 / Fold change vs veh, ZNF507 / RFU, DGCR2 / Fold change vs veh, DGCR2 / RFU, WDSUB1 / Fold change vs veh, WDSUB1 / Fold change vs veh, HSP90B1 /// MIR3652 / RFU, ADSS / Fold change vs veh, ADSS / RFU, GK / Fold change vs veh, GK / RFU, ZNF148 / Fold change vs veh, ZNF148 / RFU, TAF9 / Fold change vs veh, TAF9 / RFU, SLC1A5 / Fold change vs veh, SLC1A5 / RFU, SLMO2 / Fold change vs veh, SLMO2 / RFU, ABCC4 / Fold change vs veh, ABCC4 / RFU, LOC101060439 /// RAP1B / Fold change vs veh, LOC101060439 /// RAP1B / RFU, RFX7 / Fold change vs veh, RFX7 / RFU, GTPBP10 / Fold change vs veh, GTPBP10 / RFU, CNEP1R1 / Fold change vs veh, CNEP1R1 / RFU, BIVM-ERCC5 /// ERCC5 / Fold change vs veh, BIVM-ERCC5 /// ERCC5 / RFU, ILF3 / Fold change vs veh, ILF3 / RFU 11762660_at / Fold change /veh 11762660_at / RFU VCAN (11757783_s_at) / Fold change /veh VCAN (11757783_s_at) / RFU DDX43 (11728927_at) / Fold change /veh DDX43 (11728927_at) / RFU KRT8 (11758188_x_at) / Fold change /veh KRT8 (11758188_x_at) / RFU NKD1 (11759106_at) / Fold change /veh NKD1 (11759106_at) / RFU SRD5A1 (11742802_a_at) / Fold change /veh SRD5A1 (11742802_a_at) / RFU TPSAB1 /// TPSB2 (11721975_s_at) / Fold change /veh TPSAB1 /// TPSB2 (11721975_s_at) / RFU GSTM3 (11746129_a_at) / Fold change /veh GSTM3 (11746129_a_at) / RFU IL23R (11737362_x_at) / Fold change /veh IL23R (11737362_x_at) / RFU TMEM51 (11727254_a_at) / Fold change /veh TMEM51 (11727254_a_at) / RFU PIWIL2 (11732686_x_at) / Fold change /veh PIWIL2 (11732686_x_at) / RFU ORM1 (11744905_x_at) / Fold change /veh ORM1 (11744905_x_at) / RFU CCDC152 (11743942_at) / Fold change /veh CCDC152 (11743942_at) / RFU ECM1 (11717891_a_at) / Fold change /veh ECM1 (11717891_a_at) / RFU IL23R (11748794_a_at) / Fold change /veh IL23R (11748794_a_at) / RFU TNFAIP8L3 (11732012_x_at) / Fold change /veh TNFAIP8L3 (11732012_x_at) / RFU MBOAT4 (11741988_at) / Fold change /veh MBOAT4 (11741988_at) / RFU 11764193_at / Fold change /veh 11764193_at / RFU TMEM53 (11763286_at) / Fold change /veh TMEM53 (11763286_at) / RFU MAGEB2 (11727129_at) / Fold change /veh MAGEB2 (11727129_at) / RFU TMEM200A (11744735_a_at) / Fold change /veh TMEM200A (11744735_a_at) / RFU CCDC152 (11751479_a_at) / Fold change /veh CCDC152 (11751479_a_at) / RFU FAM211A (11726209_a_at) / Fold change /veh FAM211A (11726209_a_at) / RFU RGS16 (11746705_a_at) / Fold change /veh RGS16 (11746705_a_at) / RFU VCAN (11755009_s_at) / Fold change /veh VCAN (11755009_s_at) / RFU RHOB (11743442_s_at) / Fold change /veh RHOB (11743442_s_at) / RFU RGS16 (11720943_a_at) / Fold change /veh RGS16 (11720943_a_at) / RFU RGS16 (11720944_at) / Fold change /veh RGS16 (11720944_at) / RFU, VPS4B / Fold change vs veh, VPS4B / RFU, CREB1 / Fold change vs veh, CREB1 / RFU, DNAJC13 / Fold change vs veh, DNAJC13 / RFU, GNAQ / Fold change vs veh, GNAQ / RFU, CDK5R1 / Fold change vs veh, CDK5R1 / RFU, ZRANB3 / Fold change vs veh, ZRANB3 / RFU, CUL4A / Fold change vs veh, CUL4A / RFU, CCNY / Fold change vs veh, CCNY / RFU, UFL1 / Fold change vs veh, UFL1 / RFU, COG3 / Fold change vs veh, COG3 / RFU, DIAPH2 / Fold change vs veh, DIAPH2 / RFU, SKA2 / Fold change vs veh, SKA2 / RFU, AFF3 / Fold change vs veh, AFF3 / RFU, LMF1 / Fold change vs veh, LMF1 / RFU, IPO11 / Fold change vs veh, IPO11 / RFU, DFFB / Fold change vs veh, DFFB / RFU, FOXP1 / Fold change vs veh, FOXP1 / RFU, CARD8 / Fold change vs veh, CARD8 / RFU, STRN3 / Fold change vs veh, STRN3 / RFU, ADK / Fold change vs veh, ADK / RFU, RASSF2 / Fold change vs veh, RASSF2 / RFU, WIPF1 / Fold change vs veh, WIPF1 / RFU, LARP1B / Fold change vs veh, LARP1B / RFU, RASA1 / Fold change vs veh, RASA1 / RFU, RB1 / Fold change vs veh, RB1 / RFU, PPFIA1 / Fold change vs veh, PPFIA1 / RFU, MAT2A / Fold change vs veh, MAT2A / RFU, CCT5 / Fold change vs veh, CCT5 / RFU, WDR92 / Fold change vs veh, WDR92 / RFU, CUX1 / Fold change vs veh, CUX1 / RFU, TTC7A / Fold change vs veh, TTC7A / RFU, TMEM135 / Fold change vs veh, TMEM135 / RFU, DEPTOR / Fold change vs veh, DEPTOR / RFU, CPM / Fold change vs veh, CPM / RFU, DNAJB6 / Fold change vs veh, DNAJB6 / RFU, CACNA2D3 / Fold change vs veh, CACNA2D3 / RFU, DTX4 / Fold change vs veh, DTX4 / RFU, TFCP2 / Fold change vs veh, TFCP2 / RFU, GMCL1 /// GMCL1P1 / Fold change vs veh, GMCL1 /// GMCL1P1 / RFU, AEBP2 / Fold change vs veh, AEBP2 / RFU, SNHG1 /// SNORD22 /// SNORD25 /// SNORD26 /// SNORD27 /// SNORD28 /// SNORD29 /// SNORD31 / Fold change vs veh, SNHG1 /// SNORD22 /// SNORD25 /// SNORD26 /// SNORD27 /// SNORD28 /// SNORD29 /// SNORD31 / Fold change (Aza/veh), C12orf56 (ProbeSet 11735607_a_at) / Fold change (ACY-1035/veh), C12orf56 (ProbeSet 11735607_a_at) / Fold change (Aza/veh), FGFR1OP (ProbeSet 11751329_s_at) / Fold change (ACY-1035/veh), FGFR1OP (ProbeSet 11751329_s_at) / Fold change (Aza/veh), VPS36 (ProbeSet 11739960_a_at) / Fold change (ACY-1035/veh), VPS36 (ProbeSet 11739960_a_at) / RFU SYPL1 (11715823_x_at) / Fold change /veh SYPL1 (11715823_x_at) / RFU IGFBP7 (11715501_s_at) / Fold change /veh IGFBP7 (11715501_s_at) / RFU REEP3 (11722064_at) / Fold change /veh REEP3 (11722064_at) / RFU IGLL1 (11728026_x_at) / Fold change /veh IGLL1 (11728026_x_at): dose or concentration left out as unconfirmed
Settings: MV-4-11 cells, 48 hours

Nc1ncn([C@@H]2O[C@H](CO)[C@@H](O)[C@H]2O)c(=O)n1 [azacitidine]
RFU C10orf10 (11716522_x_at): 45.56 RFU
